{"source": "patent US4888339A", "about": "“Agent for prophylaxis and treatment of cardiac hypertrophy” (Tanabe Seiyaku Co., Ltd., priority 1986, dated 1989)", "type_in_all_cases": "in vivo", "key": {"[1]": {"tested_on": "spontaneously hypertensive rats (SHR)", "experiment": "Activity for inhibiting cardiac hypertrophy, oral administration to SHR (Experiment 1)", "conditions": "5 mg/kg/day for 10 weeks", "protocol": "The test compound: (4S)-1-methyl-3-[(2S)-2-[N-((1S)-1-ethoxycarbonyl-3-phenylpropyl)amino]propionyl]-2-oxo-imidazolidine-4-carboxylic acid hydrochloride was dissolved in distilled pure water and orally administered to spontaneously hypertensive rats (SHR) (4 weeks old age at the beginning of experiment, groups of 6 rats) at a dose of 5 mg/kg/day for 10 weeks.\nTwenty-four hours after the final dosing, the SHR was killed by bleeding under ether anesthesia. The weight of heart was measured and the weight of heart per 100 g of body weight (relative heart weight) was calculated. After that, the heart was used for the measurement of cross sectional area of the heart.\nMethod for measurement of cross sectional area of heart is as follows:\n(i) After weighing the excised heart, the excised heart was immersed in 10% neutral buffered formalin solution for about one week to fix said heart. The fixed heart was cut at a definitive region crossing the left and right ventricles to obtain a sample (thickness: about 2 mm). The sample was again immersed in a 10% neutral buffered formalin solution overnight, treated with paraffin in a usual manner (Note 1) and then stained with hematoxyin eosine (HE).\n(ii) The microscopic image of the stained sample was examined by an image analyzer (Note 2) to give the ratio of the area of stained region to the area of unstained region (the latter area being the gap produced in preparing the sample).\n(iii) The real area of the sample was obtained by an image analyzer and then multiplied by the ratio obtained in the above (ii) to give the cross sectional area of the heart.\n[Note 1]: It is disclosed in \"Byori Gijutsu Mannual\" (Mannual for Pathorogical Technology) 3, Technology for Histopathorogical Preparation, ed. by Nippon Byori Gakkai, issued on Mar. 30, 1981 by Ishiyaku Shuppan K.K.\n[Note 2]: Nikon three tube color television camera and Nikon Ruzex II, manufactured by Nippon Kogaku K.K.\nThe inhibitory ratio was calculated by the following equation: [formula]"}, "rats": {"tested_on": "rats", "experiment": "Oral toxicity in rats", "conditions": "5 g/kg, observed for 5 days", "text": "Moreover, the compounds (I) of this invention have low toxicity."}, "[2]": {"tested_on": "spontaneously hypertensive rats (SHR)", "experiment": "Activity for inhibiting cardiac hypertrophy, intraperitoneal administration to SHR (Experiment 2)", "conditions": "0.5 mg/kg/day for 10 weeks", "protocol": "The test compound: (4S)-1-methyl-3-[(2S)-2-[N-((1S)-1-carboxy-3-phenylpropyl)amino]propionyl]-2-oxo-imidazolidine-4-carboxylic acid hydrochloride was dissolved in distilled pure water and intraperitoneally administered to spontaneously hypertensive rats (SHR) (4 weeks old age at the beginning of experiment, groups of 9 rats) at a dose of 0.5 mg/kg/day for 10 weeks.\nTwenty-four hours after the final dosing, the SHR was killed by bleeding under ether anesthesia. The weight of heart was measured and the weight of heart per 100 g of body weight (relative heart weight) was calculated."}, "[3]": {"conditions": "SHR, versus non-administ. group"}}, "data": [{"smiles": "CCOC(=O)[C@H](CCc1ccccc1)N[C@@H](C)C(=O)N1C(=O)N(C)C[C@H]1C(=O)O", "note": "[(4S)-1-methyl-3-[(2S)-2-[N-((1S)-1-ethoxycarbonyl-3-phenylpropyl)amino]propionyl]-2-oxo-imidazolidine-4-carboxylic acid]", "values": [{"measurement": "Inhibition of increase of heart weight (in words)", "setting": "[1]; spontaneously hypertensive rats", "value": "significantly inhibited increase of heart weight"}, {"measurement": "Mortality", "setting": "rats", "value": "no rats was died"}]}, {"smiles": "CCOC(=O)[C@H](CCc1ccccc1)N[C@@H](C)C(=O)N1C(=O)N(C)C[C@H]1C(=O)O.Cl", "note": "[(4S)-1-methyl-3-[(2S)-2-[N-((1S)-1-ethoxycarbonyl-3-phenylpropyl)amino]propionyl]-2-oxo-imidazolidine-4-carboxylic acid hydrochloride]", "values": [{"measurement": "Inhibition of cardiac hypertrophy (in words)", "setting": "[1]; SHR", "value": "clear inhibition of cardiac hypertrophy"}, {"measurement": "Relative heart weight (weight of heart per 100 g of body weight)", "setting": "[1]; SHR, groups of 6, non-administ. group 0.399 ± 0.01, * significant at 1% level", "value": "0.34 ± 0.01", "unit": "g"}, {"measurement": "Sectional area of heart", "setting": "[1]; SHR, groups of 6, non-administ. group 66.8 ± 4.0, * significant at 1% level", "value": "57.9 ± 2.9", "unit": "mm^2"}, {"measurement": "Inhibitory ratio, relative heart weight", "setting": "[1]; [3]", "value": 13, "unit": "%"}, {"measurement": "Inhibitory ratio, sectional area of heart", "setting": "[1]; [3]", "value": 13, "unit": "%"}]}, {"smiles": "C[C@H](N[C@@H](CCc1ccccc1)C(=O)O)C(=O)N1C(=O)N(C)C[C@H]1C(=O)O.Cl", "note": "[(4S)-1-methyl-3-[(2S)-2-[N-((1S)-1-carboxy-3-phenylpropyl)amino]propionyl]-2-oxo-imidazolidine-4-carboxylic acid hydrochloride]", "values": [{"measurement": "Inhibition of cardiac hypertrophy (in words)", "setting": "[2]", "value": "clear inhibition of cardiac hypertrophy"}, {"measurement": "Relative heart weight (weight of heart per 100 g of body weight)", "setting": "[2]; groups of 9, non-administ. group 0.36 ± 0.013, ** significant at 0.1% level", "value": "0.33 ± 0.012", "unit": "g"}, {"measurement": "Inhibitory ratio, relative heart weight", "setting": "[2]; versus non-administ. group", "value": 8, "unit": "%"}]}, {"smiles": "C[C@H](N[C@@H](CCc1ccccc1)C(=O)O)C(=O)N1C(=O)N(C)C[C@H]1C(=O)O", "note": "[(4S)-1-methyl-3-[(2S)-2-[N-((1S)-1-carboxy-3-phenylpropyl)amino]propionyl]-2-oxo-imidazolidine-4-carboxylic acid]", "values": [{"measurement": "Mortality", "setting": "rats", "value": "no rats was died"}]}]}
